Measured values taken from US11440904B2, “Substituted pyrimidines, pharmaceutical compositions and therapeutic methods thereof” (priority 2017, dated 2022).
pEC50, pIC50: −log10 of the molar value.

Experiments:
MDA-MB-231 cells = assay: Cancer cell growth inhibition, MDA-MB-231; type: cell-based; details: Homo sapiens, 72 hr, cell viability
Experimental: (§1) In order to test certain compounds of Compounds 1 to 24 for cancer cell growth inhibition, a leukemia cancer cell line EOL-1, and triple negative breast cancer cell line MDA-MB-231 was used.
(§2) EOL-1 and MDA-MB-231 cells were cultured in a RPMI-1640 cell culture medium supplemented with 10% fetal bovine serum (FBS) and 1% penicillin/streptomycin (Gibco BRL).
(§3) The cancer cell lines stored in a liquid nitrogen tank were each quickly thawed at 37° C. water bath, and centrifuged to remove the DMSO in the freezing medium. The resulting cell pellet was mixed with a culture medium, incubated in a culture flask at 37° C. under 5% CO2 for 2 to 3 days. The EOL-1 cells were sub-cultured by 1:5˜10 dilution in fresh culture medium. For MD-MB-231 cells, the culture medium was removed and the remaining cells were washed with PBS (Phosphate Buffered Saline) and trypsinized by trypsin-EDTA. The detached cells were sub-cultured by 1:5˜10 dilution in fresh culture medium.
(§4) For the cell growth inhibition assay, the cells were seeded in 96-well cell culture plates at 5×10^4 cells/well for EOL-1 and 5×10^3 cells/well for MDA-MB-231 cells in 50 μL and incubated at 37° C. under 5% CO2 for 3 to 6 hr. before the compounds were added.
(§5) Certain compounds of Compounds 1-24 were dissolved in dimethylsulfoxide (DMSO) to a concentration of 10 mM. The DMSO solution containing test compound was diluted with a culture medium to a final concentration of 600 μM, and then diluted 100 times to 6 μM as top dose followed by 1:3 serial dilutions, and then add 50 μL diluted compounds to the 50 μL cells, with a final top dose at 3 μM and the plate was incubated at 37° C. under 5% CO2 for 72 hr. The cell viability was determined by Cell Meter™ Fluorimetric Cell Cytotoxicity Assay Kit (AAT Bioquest) according to the manufacturer's instructions. Briefly, thaw and warm up the Assay Solution (Component A) to 37° C., and mix it thoroughly. Add 20 μL/well (96-well plate) of Assay Solution (Component A). Mix the reagents by shaking the plate gently for 30 seconds. Incubate the cells in a 37° C., 5% CO2 incubator for 1-24 hr., protected from light. Monitor the fluorescence intensity (bottom read) at Ex/Em=540/590 nm. Alternatively, read the O.D. at 570 nm (the reference wavelength should be 600 nm) to determine the cell viability in each well.

ITK = ITK (Homo sapiens (Human), UniProt Q08881); assay: 33P ATP HotSpot kinase assay, ITK; type: biochemical; details: 10 μM ATP
Experimental: (§6) (See, e.g., Ma, et al, 2008 Expert Opin Drug Discov. 3(6): 607-621.)
(§7) Each of Compound-1 to Compound-24 was measured for its inhibitory activity on TEC family kinases, BMX and ITK. The measurement was carried out in the same process as described above, BMX, ITK enzymes were used.

BTK wt = BTK wt (Homo sapiens (Human), UniProt Q06187); assay: 33P ATP HotSpot kinase assay, BTK wt; type: biochemical; details: 10 μM ATP
From the text: as §6

[1] = molecular target: BTK phosphorylation at tyrosine 223 (Homo sapiens (Human), UniProt Q06187); assay: Immunoblot analysis of phospho-BTK(Y223) in Ramos cells; type: cell-based; details: 1 hr treatment, anti-IgM stimulation, western blot
Experimental: Ramos cells were cultured in RPMI-1640 medium with 10% fetal bovine serum (FBS) and 1% penicillin/streptomycin (Gibco BRL). Before the assay, Ramos cells were counted and seeded at 1×10^6 cells/mL, cultured overnight in RPMI-1640 medium with 10% FBS, the cells were centrifuged at 950 rpm for 10 min., then 1˜2×10^6 cells were split into each tube in 300 μL medium. The cells were treated with certain compounds of Compound 1-24 at 0˜3 μM for 1 hr. in 37° C., then the cells were stimulated with 10 μg/mL of anti-IgM (BioLegend) for 5 min., followed by 3 min. spin at 2000 rpm. After aspirating the supernatant, 60 μL of RIPA lysis buffer (50 mM Tris-HCl, 1 mM EDTA, 1% NP-40, 0.5% sodium deoxycholate, and 0.1% SDS, pH 7.4, 150 mM NaCl, 1 mM Na3VO4) was added to the cell pellet to lyse the cells on ice for 30 min. After spin at 10,000 rpm for 5 min., 60 μL of the cell lysate was transferred to a fresh tube, and 20 μL of 4× LDS buffer was added to the tube. The samples were boiled on a 100° C. heat block for 10 min. 25 μL lysate was loaded on to SDS-PAGE gel (NuPAGE™ Novex™ 4-12% Bis-Tris Midi Protein Gels, cat. no. WG1402BOX, ThermoFisher) for western blotting analysis per the manufacturer's instructions. Antibodies used for immunoblot analysis include Btk and p-Btk(Y223) (cat. no. 3553 and 5082; Cell Signaling Technology, Beverly, Mass.). p-Btk(Y223) (cat. no. GTX61791; GeneTex, Inc., Irvine, Calif.). Membranes were detected using infrared fluorescence dye (IRDye® 800CW Donkey anti-Rabbit IgG (H+L), cat. no. P/N 925-32213; IRDye® 680RD Donkey anti-Mouse IgG (H+L), cat. no. P/N 925-68072 and scanned on a LiCor Odyssey scanner (LiCor Biosciences, Lincoln, Nebr.).

FAK = FAK (Homo sapiens (Human), UniProt Q05397); assay: 33P ATP HotSpot kinase assay, FAK; details: read-out: IC50 FAK, 10 μM ATP
EOL-1 cells = assay: Cancer cell growth inhibition, EOL-1; type: cell-based; details: Homo sapiens, EOL1, 72 hr, cell viability
Experimental: as §1, §2, §3, §4, §5

EGFR wt = EGFR wt (Homo sapiens (Human), UniProt P00533); assay: 33P ATP HotSpot kinase assay, EGFR wt; type: biochemical; details: 10 μM ATP
BMX = BMX (Homo sapiens (Human), UniProt P51813); assay: 33P ATP HotSpot kinase assay, BMX; type: biochemical; details: 10 μM ATP
Experimental: as §6, §7

[2] = test system: ERK phosphorylation at T202/Y204; assay: Cell-based ERK1/2 (T202/Y204) phosphorylation ELISA in EOL-1 cells; details: 3 hr or 15 hr treatment, read-out: EC50 phospho-ERK1/2 (T202/Y204)
Experimental: EOL-1 cells were cultured in RPMI-1640 medium with 10% fetal bovine serum (FBS) and 1% penicillin/streptomycin (Gibco BRL). Before the assay, EOL-1 cells were counted and seeded at 1×10^6 cells/well in a 6-well plate, cultured overnight in RPMI-1640 medium with 10% FBS. The cells were treated with certain compounds of Compounds 1-24 at 0˜3 μM for 3 hr. or 15 hr. at 37° C., then the cells were harvested, followed by 5 min. spin at 2000 rpm. After aspirating the supernatant, the cells were washed with cold PBS, span again, then 100 μL of RIPA lysis buffer (50 mM Tris-HCl, 1 mM EDTA, 1% NP-40, 0.5% sodium deoxycholate, and 0.1% SDS, pH 7.4, 150 mM NaCl, 1 mM Na3VO4) was added to the cell pellet to lyse the cells on ice for 30 min. After spin at 12,000 rpm for 5 min., 90 μL of the cell lysate was transferred to a fresh tube.
For an enzyme-linked immunosorbent assay (ELISA) assay, 10 μL of the lysate was used for p-ERK1/2 (T202/Y204) elisa assay. ELISA was done using the ERK 1/2 (pT202/Y204 +Total) ELISA Kit (Abcam, ab176660) according to the manufacturer's instructions. Specifically, add 50 μL of all samples or standards to appropriate wells. Add 50 μL of the Antibody Cocktail to each well. Seal the plate and incubate for 1 hr. at r.t. on a plate shaker set to 400 rpm. Wash each well with 3×350 μL 1× Wash Buffer PT. […] This is an endpoint reading.

ERK1 kinase = ERK1 kinase (Homo sapiens (Human), UniProt P27361); assay: 33P ATP HotSpot kinase assay, ERK1; type: biochemical; details: 10 μM ATP
Experimental: as §6
Certain compounds of Compound-1 to Compound-24 were measured for its inhibitory activity on ERK1 kinase. The measurement was carried out in the same process as described above, ERK enzyme was used.

[3] = molecular target: FAK phosphorylation at tyrosine 397 (Homo sapiens (Human), UniProt Q05397); assay: Cell-based FAK(Y397) phosphorylation ELISA in PC3 cells; details: 1 hr treatment, read-out: EC50 phospho-FAK(Y397)
Sequence of FAK phosphorylation at tyrosine 397 (Q05397 whole entry): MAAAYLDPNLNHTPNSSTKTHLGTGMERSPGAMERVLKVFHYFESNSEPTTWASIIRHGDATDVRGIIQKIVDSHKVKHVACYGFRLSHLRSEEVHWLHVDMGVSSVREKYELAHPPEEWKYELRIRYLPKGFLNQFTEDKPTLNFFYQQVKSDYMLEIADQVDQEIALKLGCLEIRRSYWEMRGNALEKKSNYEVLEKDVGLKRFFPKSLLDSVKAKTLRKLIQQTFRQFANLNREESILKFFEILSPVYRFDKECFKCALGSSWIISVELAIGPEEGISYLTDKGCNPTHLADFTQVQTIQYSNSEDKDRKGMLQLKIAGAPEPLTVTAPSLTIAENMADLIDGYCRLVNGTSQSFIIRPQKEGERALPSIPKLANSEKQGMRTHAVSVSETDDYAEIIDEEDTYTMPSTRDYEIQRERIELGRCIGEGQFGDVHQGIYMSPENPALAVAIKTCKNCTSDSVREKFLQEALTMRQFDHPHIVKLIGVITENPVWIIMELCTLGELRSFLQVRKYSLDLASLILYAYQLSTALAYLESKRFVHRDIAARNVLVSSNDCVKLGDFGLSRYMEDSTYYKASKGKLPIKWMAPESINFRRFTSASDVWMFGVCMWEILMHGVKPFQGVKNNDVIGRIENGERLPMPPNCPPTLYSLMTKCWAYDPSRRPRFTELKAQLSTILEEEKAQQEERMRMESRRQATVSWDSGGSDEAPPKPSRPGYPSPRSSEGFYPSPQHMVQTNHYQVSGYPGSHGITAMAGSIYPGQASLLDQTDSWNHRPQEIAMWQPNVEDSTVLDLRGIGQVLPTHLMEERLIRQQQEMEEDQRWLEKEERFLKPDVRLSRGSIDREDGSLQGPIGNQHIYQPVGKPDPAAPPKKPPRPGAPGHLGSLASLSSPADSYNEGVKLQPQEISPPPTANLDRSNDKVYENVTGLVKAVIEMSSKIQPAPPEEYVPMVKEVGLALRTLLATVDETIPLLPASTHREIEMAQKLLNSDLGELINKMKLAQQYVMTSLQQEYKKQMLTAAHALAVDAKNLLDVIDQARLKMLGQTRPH

Sequence of BTK phosphorylation at tyrosine 223 (Q06187 whole entry): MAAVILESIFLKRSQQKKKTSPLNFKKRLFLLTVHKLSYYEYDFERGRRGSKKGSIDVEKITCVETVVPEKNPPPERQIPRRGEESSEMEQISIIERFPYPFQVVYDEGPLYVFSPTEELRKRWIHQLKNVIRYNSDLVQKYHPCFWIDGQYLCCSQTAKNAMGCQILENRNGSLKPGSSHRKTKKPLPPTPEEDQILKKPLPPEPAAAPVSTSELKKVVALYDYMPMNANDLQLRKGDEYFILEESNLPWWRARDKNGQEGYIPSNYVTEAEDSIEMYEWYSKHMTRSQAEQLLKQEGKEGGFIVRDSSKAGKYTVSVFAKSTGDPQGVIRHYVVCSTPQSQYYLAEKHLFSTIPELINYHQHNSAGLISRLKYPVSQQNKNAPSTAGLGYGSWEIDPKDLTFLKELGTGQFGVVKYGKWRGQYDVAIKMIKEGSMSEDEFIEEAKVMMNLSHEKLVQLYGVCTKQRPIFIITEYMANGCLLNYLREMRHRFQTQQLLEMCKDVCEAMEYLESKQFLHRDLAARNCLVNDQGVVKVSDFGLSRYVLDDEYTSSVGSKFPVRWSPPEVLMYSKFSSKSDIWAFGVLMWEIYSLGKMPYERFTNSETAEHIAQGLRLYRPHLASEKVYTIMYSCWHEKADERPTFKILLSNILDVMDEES
Sequence of BTK wt (Q06187 whole entry): as above
Sequence of BMX (P51813 whole entry): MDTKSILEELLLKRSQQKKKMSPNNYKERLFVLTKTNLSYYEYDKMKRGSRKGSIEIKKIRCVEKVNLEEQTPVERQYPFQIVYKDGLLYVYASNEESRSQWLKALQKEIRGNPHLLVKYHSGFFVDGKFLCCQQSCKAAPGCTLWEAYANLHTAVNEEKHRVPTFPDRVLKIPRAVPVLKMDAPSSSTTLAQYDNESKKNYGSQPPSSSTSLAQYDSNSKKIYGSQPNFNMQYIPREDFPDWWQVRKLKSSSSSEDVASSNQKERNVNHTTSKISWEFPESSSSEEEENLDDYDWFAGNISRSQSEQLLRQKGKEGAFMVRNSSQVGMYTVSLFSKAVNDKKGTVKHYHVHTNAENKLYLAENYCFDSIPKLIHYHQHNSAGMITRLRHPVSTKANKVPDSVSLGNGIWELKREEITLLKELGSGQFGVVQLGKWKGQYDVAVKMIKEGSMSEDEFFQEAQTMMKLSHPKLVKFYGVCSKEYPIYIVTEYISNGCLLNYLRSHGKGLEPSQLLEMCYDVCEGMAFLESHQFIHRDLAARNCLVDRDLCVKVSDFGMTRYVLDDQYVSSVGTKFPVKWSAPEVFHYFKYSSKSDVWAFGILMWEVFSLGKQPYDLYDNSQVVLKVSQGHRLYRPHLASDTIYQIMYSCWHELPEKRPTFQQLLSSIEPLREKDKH
Sequence of ITK (Q08881 whole entry): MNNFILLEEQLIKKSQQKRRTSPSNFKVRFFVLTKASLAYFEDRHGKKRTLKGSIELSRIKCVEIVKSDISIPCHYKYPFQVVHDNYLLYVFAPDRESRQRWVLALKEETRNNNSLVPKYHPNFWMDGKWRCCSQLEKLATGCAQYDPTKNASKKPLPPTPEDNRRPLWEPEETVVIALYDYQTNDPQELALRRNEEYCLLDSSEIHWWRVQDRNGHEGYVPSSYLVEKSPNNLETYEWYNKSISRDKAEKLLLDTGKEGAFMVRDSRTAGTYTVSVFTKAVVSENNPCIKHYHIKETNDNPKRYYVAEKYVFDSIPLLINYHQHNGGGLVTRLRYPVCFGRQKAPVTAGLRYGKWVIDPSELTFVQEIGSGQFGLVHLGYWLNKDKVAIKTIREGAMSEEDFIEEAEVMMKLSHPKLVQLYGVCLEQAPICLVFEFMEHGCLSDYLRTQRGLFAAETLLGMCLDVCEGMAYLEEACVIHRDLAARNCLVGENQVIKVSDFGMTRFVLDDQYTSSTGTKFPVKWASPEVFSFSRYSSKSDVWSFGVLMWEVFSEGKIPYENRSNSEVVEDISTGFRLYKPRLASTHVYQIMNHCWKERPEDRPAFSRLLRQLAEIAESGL
Sequence of EGFR wt (P00533 25-1210): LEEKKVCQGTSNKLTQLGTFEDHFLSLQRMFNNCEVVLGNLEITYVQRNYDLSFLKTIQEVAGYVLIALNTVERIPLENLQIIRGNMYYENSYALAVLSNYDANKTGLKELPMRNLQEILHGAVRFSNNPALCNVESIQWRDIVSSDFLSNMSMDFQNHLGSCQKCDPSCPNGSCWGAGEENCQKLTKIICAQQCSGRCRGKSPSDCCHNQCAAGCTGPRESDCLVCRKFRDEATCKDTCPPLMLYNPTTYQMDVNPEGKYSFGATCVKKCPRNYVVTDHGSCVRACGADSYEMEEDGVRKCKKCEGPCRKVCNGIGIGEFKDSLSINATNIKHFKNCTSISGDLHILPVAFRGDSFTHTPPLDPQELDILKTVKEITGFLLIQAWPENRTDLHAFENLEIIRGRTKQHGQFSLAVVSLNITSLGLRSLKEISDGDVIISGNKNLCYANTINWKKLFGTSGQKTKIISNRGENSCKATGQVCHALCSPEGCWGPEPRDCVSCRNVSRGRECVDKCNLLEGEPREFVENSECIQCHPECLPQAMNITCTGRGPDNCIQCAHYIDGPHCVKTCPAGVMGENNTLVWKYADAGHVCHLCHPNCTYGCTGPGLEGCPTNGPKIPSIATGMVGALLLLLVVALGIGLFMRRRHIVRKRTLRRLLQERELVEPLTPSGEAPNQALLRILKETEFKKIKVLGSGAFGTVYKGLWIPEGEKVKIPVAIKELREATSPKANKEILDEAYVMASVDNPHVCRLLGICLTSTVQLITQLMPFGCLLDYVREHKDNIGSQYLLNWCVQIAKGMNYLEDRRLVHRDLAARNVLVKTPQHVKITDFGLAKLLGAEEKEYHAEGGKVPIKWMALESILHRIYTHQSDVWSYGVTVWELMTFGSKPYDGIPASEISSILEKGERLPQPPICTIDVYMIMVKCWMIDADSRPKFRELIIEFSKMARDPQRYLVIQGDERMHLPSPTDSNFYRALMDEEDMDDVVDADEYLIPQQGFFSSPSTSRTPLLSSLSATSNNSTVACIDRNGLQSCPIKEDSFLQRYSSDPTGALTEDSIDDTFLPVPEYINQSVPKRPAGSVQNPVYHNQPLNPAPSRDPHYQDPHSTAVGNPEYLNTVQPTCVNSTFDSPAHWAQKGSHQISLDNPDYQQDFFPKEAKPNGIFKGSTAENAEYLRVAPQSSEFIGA
Sequence of FAK (Q05397 whole entry): as the sequence (Q05397 whole entry) above
Sequence of ERK1 kinase (P27361 whole entry): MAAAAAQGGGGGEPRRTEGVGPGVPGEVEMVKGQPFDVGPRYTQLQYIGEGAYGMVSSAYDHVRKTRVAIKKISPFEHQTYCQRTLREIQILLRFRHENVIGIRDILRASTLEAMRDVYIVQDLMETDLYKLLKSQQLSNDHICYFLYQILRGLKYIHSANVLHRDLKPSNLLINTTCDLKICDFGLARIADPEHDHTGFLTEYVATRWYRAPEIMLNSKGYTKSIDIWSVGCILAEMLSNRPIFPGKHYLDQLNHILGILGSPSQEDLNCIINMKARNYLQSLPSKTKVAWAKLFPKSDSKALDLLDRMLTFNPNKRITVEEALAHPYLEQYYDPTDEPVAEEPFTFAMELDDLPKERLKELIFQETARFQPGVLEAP

pIC50 (MDA-MB-231 cells) | pIC50 (ITK) | pIC50 (BTK wt) | pEC50 [1] | pIC50 (FAK) | pIC50 (EOL-1 cells) | pIC50 (EGFR wt) | pIC50 (BMX) | pEC50 [2] | pIC50 (ERK1 kinase) | pEC50 [3] | Compound
< 5.52 | 8.87 | 9.19 | > 7.00 | 6.56 | 5.60 | 6.68 | 9.39 | – | – | – | C=CC(=O)Nc1cccc(Nc2nc(Nc3ccc4c(c3)OCCOCCOCCO4)nc3[nH]cnc23)c1 [Compound-7, N-[3-[[2-(2,5,8,11-tetraoxabicyclo[10.4.0]hexadeca-1(12),13,15-trien-14-ylamino)-9H-purin-6-yl]amino]phenyl]prop-2-enamide]
– | < 7.00 | > 7.00 | 6.00 to 7.00 | < 7.00 | – | < 7.00 | < 7.00 | – | – | – | C=CC(=O)Nc1ccccc1Nc1nc(Nc2ccc3c(c2)OCCOCCOCCO3)ncc1F [Compound-10, N-[2-[[5-fluoro-2-(2,5,8,11-tetraoxabicyclo[10.4.0]hexadeca-1(12),13,15-trien-14-ylamino)pyrimidin-4-yl]amino]phenyl]prop-2-enamide]
< 5.52 | 6.35 | 8.36 | 6.00 to 7.00 | 7.61 | 5.62 | < 6.00 | 8.57 | 5.52 to 6.00 | 6.15 | – | CCC(=O)Nc1ccccc1Nc1nc(Nc2ccc3c(c2)OCCOCCOCCO3)nc2[nH]cnc12 [Compound-12, N-[2-[[2-(2,5,8,11-tetraoxabicyclo[10.4.0]hexadeca-1(12),13,15-trien-14-ylamino)-9H-purin-6-yl]amino]phenyl]propanamide]

The next lines start with the compound.

Compound | pIC50 (MDA-MB-231 cells) | pIC50 (ITK) | pIC50 (BTK wt) | pEC50 [1] | pIC50 (FAK) | pIC50 (EOL-1 cells) | pIC50 (EGFR wt) | pIC50 (BMX) | pEC50 [2] | pIC50 (ERK1 kinase) | pEC50 [3]
C=CC(=O)N1CCC[C@@H](Nc2nc(Nc3ccc4c(c3)OCCOCCOCCO4)ncc2F)C1 [Compound-2, 1-[(3R)-3-[[5-fluoro-2-(2,5,8,11-tetraoxabicyclo[10.4.0]hexadeca-1(12),13,15-trien-14-ylamino)pyrimidin-4-yl]amino]-1-piperidyl]prop-2-en-1-one] | < 5.52 | < 6.00 | 7.13 | 6.00 to 7.00 | < 6.00 | 5.70 | < 6.00 | 8.07 | – | – | –
C=CC(=O)N1CCC[C@@H](Nc2nc(Nc3ccc4c(c3)OCCOCCOCCO4)nc3[nH]cnc23)C1 [Compound-3, 1-[(3R)-3-[[2-(2,5,8,11-tetraoxabicyclo[10.4.0]hexadeca-1(12),13,15-trien-14-ylamino)-9H-purin-6-yl]amino]-1-piperidyl]prop-2-en-1-one] | < 5.52 | 7.40 | 8.50 | > 7.00 | 5.91 | < 5.52 | 6.46 | 8.77 | – | – | –
C=CC(=O)Nc1cccc(Nc2nc(Nc3ccc(OCCCOC4(CC)OCC(C)(C)CO4)cc3)ncc2F)c1 [Compound-5, N-[3-[[2-[4-[3-[(2-ethyl-5,5-dimethyl-1,3-dioxan-2yl)oxy]propoxy]anilino]-5-fluoro-pyrimidin-4-yl]amino]phenyl]prop-2-enamide] | 5.52 | > 7.00 | > 7.00 | > 7.00 | < 7.00 | 5.72 | < 7.00 | > 7.00 | – | – | –
CN([C@@H]1CCC[C@H]1Oc1nc(Nc2ccc3c(c2)OCCOCCOCCO3)nc2[nH]ncc12)S(C)(=O)=O [Compound-19, N-methyl-N-[(1R,2R)-2-[[6-(2,5,8,11-tetraoxabicyclo[10.4.0]hexadeca-1(16),12,14-trien-14-ylamino)-1H-pyrazolo[3,4-d]pyrimidin-4-yl]oxy]cyclopentyl]methanesulfonamide] | 5.60 | – | 7.17 | – | 7.87 | 6.46 | < 6.00 | – | – | – | 6.00 to 7.00
CN(c1cnccc1CNc1nc(Nc2ccc3c(c2)OCCOCCOCCO3)nc2[nH]ccc12)S(C)(=O)=O [Compound-20, N-methyl-N-[4-[[[2-(2,5,8,11-tetraoxabicyclo[10.4.0]hexadeca-1(16),12,14-trien-14-ylamino)-7H-pyrrolo[2,3-d]pyrimidin-4-yl]amino]methyl]-3-pyridyl]methanesulfonamide] | < 5.52 | – | < 6.00 | – | 7.53 | 5.65 | < 6.00 | – | – | – | 6.00 to 7.00
